In experiment [1] the test system is Streptococcus pneumoniae. In words: Resazurin microtiter MIC assay, activity against Streptococcus pneumoniae. Type of experiment: cell-based. Here is the method:
(§1) The resazurin microtiter assay procedure described by Palomino and coworkers is used for assessing antimicrobial activity (Palomino, 2002, Antimicrob. Agents Chemother. 46:2720-2722). The assay is performed in LB broth. Resazurin sodium salt powder is prepared in distilled water and filter sterilized at […] (w/v) for MIC assays and at 0.01%8.55). (w/v) for single concentration assays. Compounds are first screened in MIC assays to assess whether growth inhibition is dependent on inhibitor concentration. The plates are incubated for 30 min under aerobic conditions. Growth controls containing no inhibitory compound, sterility controls without inoculation, and controls containing a known antibiotic, chloramphenicol, are also included. The innoculum was prepared from second passage cultures in Nutrient Broth (NB) and standardized to O.D.−600 nm=1.0 and the wells inoculated with a 1:20 dilution. Serial two-fold dilutions of each compound in 100 μL of medium are prepared directly in 96 well plates at concentrations ranging from 250 μM to 7 μM. After incubation 30 μL of resazurin solution is added to each well and incubated for 30 min. A change in color from blue to pink indicates reduction of resazurin, and therefore bacterial growth. Minimum inhibitory concentration (MIC) was determined as the lowest drug concentration that prevented the color change from blue to pink. Inhibition was quantified by observation of color change. Further studies were carried out at a single inhibitor concentration of 250 μM. The plates were incubated for 4 h under aerobic conditions with the same controls. After incubation 30 μL of resazurin solution was added to each well and incubated for 60 min. Inhibition was quantified by fluorescence readings from plate reader SAFIRE, Firmware: V 2.20 08/02 Safire. Excitation wavelength set to 560 nm, emission wavelength set to 590 nm. Well containing dye and non-inoculated cells was used as gain set. Plates are held at 37° C. and fluorescence measurements are taken at 0, 5, 10, 20, 30, and 60 min after addition of dye. Lower fluorescence values correlate to greater degrees of inhibition.

Experiment [2] deals with Bacillus subtilis. Nature of the experiment: Resazurin microtiter MIC assay, activity against Bacillus subtilis. The experiment is classed as cell-based. Here is the method:
as §1, with “Bacillus subtilis ATCC 11775 was plated on agar from a 20% glycerol stock solution stored at −80° C. Inoculated plates were then incubated at 37° C. under aerobic conditions for 16 hours. Single cultures were transferred to Nutrient Broth (NB) and cultured for 16 hours under the same conditions. […] Second passage cultures were standardized to O.D.−600 nm=1.0. The resazurin” for “The resazurin”, “of inhibition. Compounds are tested […] for their capacity to inhibit B. subtilis growth. […] Briefly, second-passage bacteria are incubated with inhibitor in a 96-well plate for four hours, then resazurin dye is added and color/fluorescence change is observed. […] Resorufin is also fluorescent and can be measured by a plate-reader.” for “of inhibition.”

The test system of experiment [3] is E. coli. Conditions: cited from earlier work.

Converted amounts (≈) assume the structure as drawn.

For `CCCCNC(=O)C(C1CCCCC1)N(C(=O)c1ccccc1OC(C)=O)C1CCCCC1` (stereo not drawn) [ygka], the values for the MIC in experiment [1] (60 uM) and in experiment [1] (same MIC in mass units) were 5 µM and 2.33 µg/mL, respectively.
In turn, `CCCCNC(=O)C(C1CCCCC1)N(C(=O)c1ccccc1C)C1CCCCC1` (stereo not drawn) [wgka] showed an MIC in experiment [2] of 50 µM (≈ 20.6 µg/mL).
Same read-out and setting: for `CCCCNC(=O)C(C1CCCCC1)N(C(=O)c1ccccc1C(F)(F)F)C1CCCCC1` (stereo not drawn) [vgka] the value was 50 µM (≈ 23.3 µg/mL).
For the compound `C#CCN(C(=O)c1ccccc1C(F)(F)F)C(C(=O)NCCCC)C1CCCCC1` (stereo not drawn) [vgba], the figures for the MIC in experiment [1] (60 uM) and in experiment [1] (same MIC in mass units) were 50 µM and 21.1 µg/mL, respectively.
As to `CC1=N[C@@H]2[C@@H](O)[C@H](O)[C@@H](CO)O[C@@H]2S1` [NAG-thiazoline], the “effect on the viability of E. coli” value in experiment [3] is “no effect”.
Turning to `CCCCNC(=O)C(C1CCCCC1)N(C(=O)c1ccccc1C)c1ccccc1` (stereo not drawn) [wgqa], the results for the MIC in experiment [1] (60 uM) and in experiment [1] (same MIC in mass units) were 50 µM and 20.3 µg/mL, respectively.
For `CCCCNC(=O)C(C1CCCCC1)N(C(=O)c1ccccc1OC)C1CCCCC1` (stereo not drawn) [qgka], the lowest concentration to inhibit growth in experiment [2] (MIC) was 50 µM (≈ 21.4 µg/mL). This lies in the double-digit micromolar range.
Consider `CCCCNC(=O)C(C1CCCCC1)N(C(=O)c1ccccc1SC)c1ccccc1` (stereo not drawn) [sgqa], for which the MIC in experiment [1] (60 uM) worked out at 50 µM; in experiment [1] (same MIC in mass units), 21.2 µg/mL.
Turning to `O=C(NC1CCCCC1)C(C1CCCCC1)N(C(=O)c1ccccc1C(F)(F)F)C1CCCCC1` (stereo not drawn) [vgkc], the MIC in experiment [1] (60 uM) was 5 µM; in experiment [1] (same MIC in mass units), 2.46 µg/mL; in experiment [2], 50 µM (≈ 24.6 µg/mL).

Source of the values: US20200277251A1, “NOVEL ANTIBACTERIAL COMPOUNDS AND METHODS OF MAKING AND USING SAME” (BROWN UNIVERSITY, priority 2017, published 2020).
